Data published in patent publication US8173788B2, “Peptide having ability to activate cancer-related gene” (priority 2005, dated 2012).

System: human normal peripheral blood monocyte
Assay: Influence of the artificially synthesized peptide on normal cell genes: coculture 7 hr, DNA chip system (Clontech), about 55000 human genes (Table 4)
Format: cell-based
Procedure: (a) The peptide obtained in Example 3 was added to a human normal peripheral blood monocyte culture system (10 to 100 μg peptide/1×10^6 to 1×10^7 monocytes), and they were cocultured for 7 hr. Then, mRNA was extracted from the monocytes and was applied to analysis for up-regulation and down-regulation in respect to about 55000 human genes by using DNA chip system (Clontech).

[1] = Enhanced Gene, Immune System Gene, Gene No. 21607, colony stimulating factor 1 (macrophage) (CSF1), transcript variant 1
[2] = Enhanced Gene, Immune System Gene, Gene No. 22100, IL5-CI0001-181000-178-f03 CI0001 Homo sapiens cDNA
[3] = Enhanced Gene, Immune System Gene, Gene No. 22254, interleukin 4 (IL4), transcript variant 1
[4] = Enhanced Gene, Immune System Gene, Gene No. 25767, tumor necrosis factor (TNF superfamily, member 2) (TNF)
[5] = Enhanced Gene, Immune System Gene, Gene No. 28615, IL3-UT0117-080301-496-D07 UT0117 Homo sapiens cDNA
[6] = Enhanced Gene, Immune System Gene, Gene No. 29703, chemokine (C—X—C motif) ligand 9 (CXCL9)
[7] = Enhanced Gene, Immune System Gene, Gene No. 45170, transforming growth factor beta 1 induced transcript 1 (TGFB1I1)
[8] = Enhanced Gene, Immune System Gene, Gene No. 51904, interleukin 1 family, member 8 (eta) (IL1F8), transcript variant 1
[9] = Enhanced Gene, Oncogene, Gene No. 2183, neuro-oncological ventral antigen 1 (NOVA1), transcript variant 1
[10] = Enhanced Gene, Oncogene, Gene No. 3642, RAB2, member RAS oncogene family (RAB2)
[11] = Enhanced Gene, Oncogene, Gene No. 3858, preferentially expressed antigen in melanoma (PRAME), transcript variant 3
[12] = Enhanced Gene, Oncogene, Gene No. 4210, RAS-like, family 11, member A (RASL11A)
[13] = Enhanced Gene, Oncogene, Gene No. 6231, breast carcinoma amplified sequence 1 (BCAS1)
[14] = Enhanced Gene, Oncogene, Gene No. 6329, mutated in colorectal cancers (MCC)
[15] = Enhanced Gene, Oncogene, Gene No. 7394, HELA CELLS COT 25-NORMALIZED cDNA clone CS0DK007YM05 3-PRIME
[16] = Enhanced Gene, Oncogene, Gene No. 8431, Ras-associated protein Rap1 (RBJ)
[17] = Enhanced Gene, Oncogene, Gene No. 8440, mab-21-like 2 (C elegans) (MAB21L2)
[18] = Enhanced Gene, Oncogene, Gene No. 14195, B-cell translocation gene 4 (BTG4)
[19] = Enhanced Gene, Oncogene, Gene No. 18829, v-myc myelocytomatosis viral related oncogene, neuroblastoma derived (avian) (MYCN)
[20] = Enhanced Gene, Oncogene, Gene No. 21713, zn87b11y5 Stratagene lung carcinoma 937218 cDNA clone IMAGE: 565149 5′
[21] = Enhanced Gene, Oncogene, Gene No. 22388, zb91f05s1 Soares_parathyroid_tumor NbHPA cDNA clone IMAGE: 320193 3′
[22] = Enhanced Gene, Oncogene, Gene No. 22675, endogenous retroviral family W, env(C7), member 1 (syncytin) (ERVWE1), mRNA
[23] = Enhanced Gene, Oncogene, Gene No. 24910, platelet-derived growth factor beta polypeptide (simian sarcoma viral (v-sis) oncogene homolog) (PDGFB), transcript variant 2
[24] = Enhanced Gene, Oncogene, Gene No. 29317, T-cell leukemia/lymphoma 6 (TCL6), transcript variant TCL6a1
[25] = Enhanced Gene, Oncogene, Gene No. 32050, disrupted in renal carcinoma 1 (DIRC1)
[26] = Enhanced Gene, Oncogene, Gene No. 34854, NEUROBLASTOMA COT 25-NORMALIZED cDNA clone CS0DC018YE24 3-PRIME
[27] = Enhanced Gene, Oncogene, Gene No. 34979, yu38e06r1 Soares ovary tumor NbHOT cDNA clone IMAGE: 236098 5′
[28] = Enhanced Gene, Oncogene, Gene No. 36631, RAB43, member RAS oncogene family (RAB43), mRNA
[29] = Enhanced Gene, Oncogene, Gene No. 37781, NEUROBLASTOMA COT 25-NORMALIZED cDNA clone CS0DC011YD03 5-PRIME
[30] = Enhanced Gene, Oncogene, Gene No. 38566, RAS protein activator like 2, mRNA (cDNA clone IMAGE: 5399841), with apparent retained intron
[31] = Enhanced Gene, Oncogene, Gene No. 46997, clone N11 NTera2D1 teratocarcinoma mRNA
[32] = Suppressed Gene, Cancer Suppressing Gene, Gene No. 8280, brain specific protein (CGI-38)
[33] = Suppressed Gene, Cancer Suppressing Gene, Gene No. 11261, breast cancer metastasis suppressor 1 (BRMS1)
[34] = Suppressed Gene, Cancer Suppressing Gene, Gene No. 11438, serologically defined breast cancer antigen 84 (SDBCAG84), transcript variant 1
[35] = Suppressed Gene, Cancer Suppressing Gene, Gene No. 30909, tumor rejection antigen (gp96) 1 (TRA1)
[36] = Suppressed Gene, Cancer Suppressing Gene, Gene No. 35687, heat shock protein 75 (TRAP1)
[37] = Suppressed Gene, Cancer Suppressing Gene, Gene No. 36334, heat shock 70 kDa protein 14 (HSPA14)
[38] = Suppressed Gene, Cancer Suppressing Gene, Gene No. 37600, AHA1, activator of heat shock 90 kDa protein ATPase homolog 1 (yeast) (AHSA1)
[39] = Suppressed Gene, Cancer Suppressing Gene, Gene No. 50395, Ras suppressor protein 1 (RSU1), transcript variant 1
[40] = Suppressed Gene, Cancer Suppressing Gene, Gene No. 52111, leukemia cell normalized cDNA library cDNA clone LEU1757_26_C2
[41] = Suppressed Gene, Immune System Gene, Gene No. 4403, programmed cell death 4 (neoplastic transformation inhibitor) (PDCD4), transcript variant 2
[42] = Suppressed Gene, Immune System Gene, Gene No. 4899, interferon (alpha, beta and omega) receptor 2 (IFNAR2), transcript variant 1
[43] = Suppressed Gene, Immune System Gene, Gene No. 8634, perform 1 (pore forming protein) (PRF1)
[44] = Suppressed Gene, Immune System Gene, Gene No. 8922, interferon induced transmembrane protein 1 (9-27) (IFITM1)
[45] = Suppressed Gene, Immune System Gene, Gene No. 9938, interleukin 17D (IL17D)
[46] = Suppressed Gene, Immune System Gene, Gene No. 10204, interferon-related developmental regulator 1 (IFRD1)
[47] = Suppressed Gene, Immune System Gene, Gene No. 10791, HLA-B associated transcript 5 (BAT5)
[48] = Suppressed Gene, Immune System Gene, Gene No. 11236, natural killer cell group 7 sequence (NKG7), mRNA
[49] = Suppressed Gene, Immune System Gene, Gene No. 11635, thymosin, beta 4, Y-linked (TMSB4Y)

With “the Peptide (QPQFGRRMESK; Human squamous cell carcinoma)” the “Enhancement Ratio” value [1] was 7.233, the “Expression Amount after Treatment with the Peptide” value (shortened to “Expression Amount after Treatment”) [1] was 24.93 and the “Enhancement Ratio” value [2] was 1.853. The “Expression Amount after Treatment” value [2] was 608.5, the “Enhancement Ratio” value [3] was 4.547 and the “Expression Amount after Treatment” value [3] was 122.7. For the same substance, the “Enhancement Ratio” value [4] was 37.72, the “Expression Amount after Treatment” value [4] was 4927 and the “Enhancement Ratio” value [5] was 7.555. For the same substance, the “Expression Amount after Treatment” value [5] was 20.69, the “Enhancement Ratio” value [6] was 30.05 and the “Expression Amount after Treatment” value [6] was 19.83. The “Enhancement Ratio” value (Enhanced Gene, Immune System Gene, Gene No. 30707, immunoglobulin superfamily, member 4C (IGSF4C)) was 7.379, the “Enhancement Ratio” value [7] was 2.225 and the “Expression Amount after Treatment” value [7] was 85.26. The “Enhancement Ratio” value [8] was 4.932, the “Expression Amount after Treatment” value [8] was 11.37 and the “Enhancement Ratio” value [9] was 2.53. For the same substance, the “Expression Amount after Treatment” value [9] was 8.623, the “Enhancement Ratio” value [10] was 2.032 and the “Expression Amount after Treatment” value [10] was 3307. For the same substance, the “Enhancement Ratio” value [11] was 2.462, the “Expression Amount after Treatment” value [11] was 22.62 and the “Enhancement Ratio” value [12] was 6.36. For the same substance, the “Expression Amount after Treatment” value [12] was 393.7, the “Enhancement Ratio” value [13] was 9.349 and the “Expression Amount after Treatment” value [13] was 5.453. The “Enhancement Ratio” value [14] was 1.786, the “Expression Amount after Treatment” value [14] was 67.54 and the “Enhancement Ratio” value [15] was 11.83. For the same substance, the “Expression Amount after Treatment” value [15] was 350.3, the “Enhancement Ratio” value [16] was 2.435 and the “Expression Amount after Treatment” value [16] was 18.61. The “Enhancement Ratio” value [17] was 2.175, the “Expression Amount after Treatment” value [17] was 15.71 and the “Enhancement Ratio” value [18] was 2.567. For the same substance, the “Expression Amount after Treatment” value [18] was 7.219, the “Enhancement Ratio” value [19] was 2.225 and the “Expression Amount after Treatment” value [19] was 15.32. For the same substance, the “Enhancement Ratio” value [20] was 45.9, the “Expression Amount after Treatment” value [20] was 7.742 and the “Enhancement Ratio” value [21] was 9.47. The “Expression Amount after Treatment” value [21] was 571.2, the “Enhancement Ratio” value [22] was 2.498 and the “Expression Amount after Treatment” value [22] was 204.4. For the same substance, the “Enhancement Ratio” value [23] was 1.898, the “Expression Amount after Treatment” value [23] was 55.05 and the “Enhancement Ratio” value [24] was 3.478. For the same substance, the “Expression Amount after Treatment” value [24] was 10.06, the “Enhancement Ratio” value [25] was 28.44 and the “Expression Amount after Treatment” value [25] was 9.806. The “Enhancement Ratio” value [26] was 26.92, the “Expression Amount after Treatment” value [26] was 1.098 and the “Enhancement Ratio” value [27] was 9.116. For the same substance, the “Expression Amount after Treatment” value [27] was 24.17, the “Enhancement Ratio” value [28] was 5.871 and the “Expression Amount after Treatment” value [28] was 417.5. The “Enhancement Ratio” value [29] was 12.79, the “Expression Amount after Treatment” value [29] was 32.41 and the “Enhancement Ratio” value [30] was 1.982. The “Expression Amount after Treatment” value [30] was 14.55, the “Enhancement Ratio” value [31] was 21.14 and the “Expression Amount after Treatment” value [31] was 236.2. The “Expression Amount after Treatment” value [32] was 9, the “Suppression Ratio” value [32] was 84.27 and the “Expression Amount after Treatment” value [33] was 6.257. For the same substance, the “Suppression Ratio” value [33] was 60.59, the “Expression Amount after Treatment” value [34] was 14.74 and the “Suppression Ratio” value [34] was 81.87. The “Expression Amount after Treatment” value [35] was 11.47, the “Suppression Ratio” value [35] was 86.08 and the “Expression Amount after Treatment” value [36] was 0.2252. For the same substance, the “Suppression Ratio” value [36] was 461.4, the “Expression Amount after Treatment” value [37] was 2.08 and the “Suppression Ratio” value [37] was 164.2. For the same substance, the “Expression Amount after Treatment” value [38] was 8.429, the “Suppression Ratio” value [38] was 116.6 and the “Expression Amount after Treatment” value [39] was 8.763. The “Suppression Ratio” value [39] was 53.66, the “Expression Amount after Treatment” value [40] was 13.6 and the “Suppression Ratio” value [40] was 43.65. For the same substance, the “Expression Amount after Treatment” value [41] was 21.97, the “Suppression Ratio” value [41] was 40.6 and the “Expression Amount after Treatment” value [42] was 4.5. The “Suppression Ratio” value [42] was 119.2, the “Expression Amount after Treatment” value [43] was 10.2 and the “Suppression Ratio” value [43] was 92.95. For the same substance, the “Expression Amount after Treatment” value [44] was 110.9, the “Suppression Ratio” value [44] was 98.91 and the “Expression Amount after Treatment” value [45] was 0.3. The “Suppression Ratio” value [45] was 39.28, the “Expression Amount after Treatment” value [46] was 9.714 and the “Suppression Ratio” value [46] was 71.65. For the same substance, the “Expression Amount after Treatment” value [47] was 3.429, the “Suppression Ratio” value [47] was 150.9 and the “Expression Amount after Treatment” value [48] was 65.47. The “Suppression Ratio” value [48] was 72.38, the “Expression Amount after Treatment” value [49] was 2.5 and the “Suppression Ratio” value [49] was 42.45. For the same substance, the “Expression Amount after Treatment” value (Suppressed Gene, Immune System Gene, Gene No. 11651, implantation-associated protein (DKFZp564K142)) was 12.84.
